# Several values for one entry are separate records, joined by “and”; a condition that tells them apart may be missing. Equal entries are not always repeated.
# Assays:
# [1] = test system: albino rabbits (New Zealand White); experiment: IOP study in albino rabbits after single eye drop; format: in vivo, rabbit; conditions: single 25 μL eye drop; CAI 0.5 or 1.0%, dorzolamide 2%; n = 5
# Description: Five 3–5 months old albino (New Zealand White, all females) and five 3–6 months old pigmented rabbits (Chinchilla Bastard, 1 male and 4 females) were purchased from Charles River Laboratories, UK and Germany, respectively. Prior to the experiments, the rabbits were habituated to handling, and the baseline values of IOP were measured. During the experiments, rabbits weighed 2.4–4.0 kg.
# First, stock solutions of CAIs (250 mg/mL) in dimethyl sulfoxide (Sigma-Aldrich, Germany) were prepared. These stock solutions were diluted with PBS (pH 7.4) to obtain 1 mg/mL (0.1%) or 10 mg/mL (1%) solutions. Water-solubility of the compounds was enhanced with 2-hydroxypropyl-β-cyclodextrin (Sigma-Aldrich, Germany) (Table 1).
# The CAI solutions were tested in albino rabbits (eye drops of 0.1, and 0.5 or 1.0%) and in pigmented rabbits (0.5 or 1.0%). The novel CAI concentrations in solutions were determined based on the drug solubility with the aim to load the highest possible drug concentration to the single eye drop.
# The IOP levels in the rabbits were measured with a tonometer (Tonometer Pro, Icare Finland Ltd.). After baseline IOP measurements, a single eye drop (25 μL) was applied to the left eye, whereas the right eye was not treated. After eye drop instillation, the eyelids were kept open manually for 1 min. The IOP was measured from both eyes of the rabbits at 0.5, 1, 2, 3, 4, 5, 6, 7, and 8 h after eye drop instillation. In the case of the pigmented rabbits, the measurements were continued until 10 h postinstillation, and further until the IOP had returned to the normal baseline.
# The CAIs were tested in the same rabbits to minimize interindividual data variation. Washout periods of at least 3 days were used between instillation of different compounds. The experiments started always at 8 a.m. to eliminate bias due to diurnal IOP fluctuation. At each time point, the pressure was measured three times with the same eye, and the average values were calculated and used in data analysis.
# [2] = Ocular pharmacokinetics in pigmented rats (iris-ciliary body, 3H-A01); format: in vivo, rat; conditions: for bound fraction: pigmented tissue
# Text: Eight albino rats (RccHan/Wist) and 18 pigmented rats (HsdOla/LH) were obtained from Envigo Laboratories B.V. (The Netherlands) and were used in pharmacokinetic experiments. Additional 13 albino and 13 pigmented rats were used in generation of the analytical standards. Young adult (3–4 months; 340–445 g) rats were used.
# To conduct the pharmacokinetic study, bromo-containing CAI A15 (molecular structure presented in Table 1) was conveniently converted into [^3H]-A01 through catalytic dehalogenation in tritium gas. A15 (3.05 mg, 8.2 μmol) was dissolved in dimethylformamide (0.3 mL) and exposed to 99 mbar of tritium gas in a tritium manifold system for 1.5 h in the presence of 10% palladium on carbon (0.57 mg). Following filtration, the reaction mixture underwent double lyophilization with 1 mL ethanol to eliminate labile tritium. […] The crude material was purified via high-performance liquid chromatography, employing a Reprosil-Pur C18-HD column (250 × 10 mm, 5 μm), with a mobile phase comprising 40% acetonitrile in 50 mM ammonium hydrogen carbonate. Purified fractions were subsequently combined, subjected to solid-phase extraction, and eluted with ethanol. Radiochemical analysis indicated a purity exceeding 97%, with a molar activity of 0.29 TBq/mmol (7.9 Ci/mmol) and a total activity of 850 MBq (23 mCi). The solution of 1% A01 (10 mg/mL) was prepared similarly as in the IOP study (see Table 1) except that the solution contained also 72 μg/mL of [^3H]–A01 (specific activity 27.21 mCi/mg). The solution was prepared freshly for each experiment.
# Seven μL of A01 solution (10 mg/mL including 72 μg/mL of ^3H–A01) was topically applied to both eyes of albino and pigmented rats. Rats were euthanized with carbon dioxide and cervical dislocation. The eyes (n = 4) of albino rats were collected 0.5, 2, 4, and 7 h after treatment. The eyes of pigmented rats were dissected 0.5, 2, 4, 7, 24, 48, 72, 144, and 240 h after eye drop instillation. The eyes were enucleated and dissected immediately after euthanasia. Iris-ciliary body was dissected, snap frozen on dry ice, and stored at −80 °C until analysis. The analyses were conducted within 24 h from tissue dissection.
# Bound and unbound radioactivity of tritiated A01 was determined from dissected iris-ciliary body samples. First, the tissues were mechanically homogenized and diluted with 0.9% sodium chloride (weight ratio 35:1). Then, cellular unbound A01 was released from the iris-ciliary body cells by freezing and thawing the solutions three times with dry ice and a water bath (37 °C). Thereafter, the supernatant and pellet were separated by centrifuging the samples for 10 min at 13,000 rpm. The pellets were dissolved by using 60 min incubation in 100 μL of Solvable (PerkinElmer, Waltham, MA, USA). The samples were then bleached with 10 μL of hydrogen peroxide for 30 min. The pellet volume was calculated as the difference between the total and supernatant volumes.
# After subtracting the background radioactivity, the measured net counts per minute (cpm) were converted to disintegrations per minute (dpm) taking into account color quenching and device efficiency. Standard curves were generated for each matrix (albino and pigmented supernatants and pellets; Appendix Figure 1). Finally, unbound, bound, and total A01 concentrations (ng/mg) in the iris-ciliary body of the […] were calculated using radioactivity (nCi) per μg of instilled A01 in the eye drops. Signal to noise ratios of measured pellet and supernatant samples in liquid scintillation counting are shown in Appendix Table 3.
# [3] = iris-ciliary body, single topical eye drop
smiles,measurement,setting,value
C/C(=N\Nc1ccc(S(N)(=O)=O)cc1)c1cccnc1 [A01],AUC0-last ± SD in albino rabbits (IOP decrease vs time),[1],19.95 ± 7.16 mmHg x h
same,concentration at 2 h,"[2]; HsdOla/LH (pigmented), rat, topical, 7 µL of 10 mg/mL solution per eye, pigmented iris-ciliary body, 2 h after administration, read-out: bound concentration at 2 h",~500 ng/g
same,concentration at 10 days,"[2]; HsdOla/LH (pigmented), rat, topical, 7 µL of 10 mg/mL solution per eye, pigmented iris-ciliary body, 10 days, read-out: bound concentration C10 days",20 ng/g
same,"exposure ratio (AUCpigm/AUCalbino), bound A01",[2]; iris-ciliary body,150 and 149.8
same,"exposure ratio (AUCpigm/AUCalbino), total A01",[2]; iris-ciliary body,18
same,"exposure ratio (AUCpigm/AUCalbino), unbound A01",[2]; iris-ciliary body,9.3
same,"AUC0-last in pigmented tissue, bound A01",[2]; [3],12.73 (ng/mg) × h
same,"AUC0-last in pigmented tissue, total A01",[2]; [3],24.72 (ng/mg) × h
same,"AUC0-last in pigmented tissue, unbound A01",[2]; [3],11.98 (ng/mg) × h
same,tmax (bound drug),[2]; pigmented eyes,24 h
same,tmax(total drug),[2]; pigmented eyes,24 h
same,"Cmax, total concentration","[2]; pigmented iris-ciliary body, at 24 h",0.36 ng/mg
same,time over which slow elimination continued,"[2]; pigmented iris-ciliary body, total drug",≥ 10 days
same,time over which unbound levels were extended,"[2]; pigmented iris-ciliary body, below quantitation limit at 6 days",at least 3 days
same,unbound concentrations,[2]; pigmented rat iris-ciliary body,10 to 800 nM
same,bound fraction,[2]; for 72 h,37–62%
same,bound fraction,[2]; later than 72 h,about 90%

# Source: paper PMC11795524, “Melanin-Binding-Based Discovery of Topically Instilled Carbonic Anhydrase Inhibitors for Targeted Delivery and Prolonged Action in the Eye” (Molecular Pharmaceutics, 2025)
